Values of other authors as cited in patent publication US7955629B2, “Method of feeding milk replacer with carnitine” (Land O'Lakes Purina Feed LLC, priority 2005, dated 2011).

How the values were obtained:
[1] = ten month old steers; 0.6 and 1.2 grams per day; forty two day trial
[2] = not given; remark: listed apart in the source
[3] = not given; remark: listed apart in the source

In the case of `C[N+](C)(C)CC(O)CC(=O)[O-]` (centres unmarked) [carnitine], the “effectiveness of carnitine (backfat depths)” value [1] is given as “inconclusive”, the “milk fat content and milk fat yield” value (dosed directly into the abomasum) is given as “decreased” and the “digestible and metabolized energy from the diet” value (dosed directly into the rumen or abomasum) is given as “tended to increase”. For the same compound, the Milk production (dosed into the rumen or abomasum) was “not affected”, the “average daily gain compared to the control” value ([2]; heifers fed 0.6 and 1.2 grams per day, midpoint of the experiment) was “statistically significantly greater” and the “average daily weight gain, fed or not fed carnitine” value ([2]; heifers, end of the forty two day experiment) was “no statistically significant difference”. For the same compound, the “Acetate to proprionate ratios” value ([3]; mature ruminally cannulated steers) was “not effected” and the “nitrogen uptake from the rumen” value ([3]; supplementation at high levels in a high roughage diet) was “little effect”.
